# According to ChEMBL document CHEMBL4649989, “Design of a Chemical Probe for the Bromodomain and Plant Homeodomain Finger-Containing (BRPF) Family of Proteins” (J Med Chem, 2017):
# pIC50: −log10 of the molar value. Where “and” joins values, the source holds several entries; their conditions need not be identical. Equal entries are not always repeated.
# Tests used:
# [1] = molecular target: Bromodomain adjacent to zinc finger domain protein 2A (Homo sapiens) (UniProt Q9UIF9); settings: Compound concentration 10.0 uM
# [2] = molecular target: ATPase family AAA domain-containing protein 2B (Homo sapiens) (UniProt Q9ULI0); settings: Compound concentration 10.0 uM
# [3] = molecular target: Protein polybromo-1 (Homo sapiens) (UniProt Q86U86); settings: Compound concentration 10.0 uM
# [4] = molecular target: Transcription intermediary factor 1-alpha (Homo sapiens) (UniProt O15164); settings: Compound concentration 10.0 uM
# [5] = molecular target: Chromatin remodeling regulator CECR2 (Homo sapiens) (UniProt Q9BXF3); settings: Compound concentration 10.0 uM
# [6] = molecular target: CREB-binding protein (Homo sapiens) (UniProt Q92793); settings: Compound concentration 5.0 uM
# Description: Alphascreen assay. Domain start/stop: R1081-G1197
# [7] = molecular target: Protein polybromo-1 (Homo sapiens) (UniProt Q86U86); settings: Compound concentration 10.0 uM; remark: listed apart in the source
# [8] = molecular target: Bromodomain testis-specific protein (Homo sapiens) (UniProt Q58F21); settings: Compound concentration 10.0 uM
# [9] = molecular target: Histone-lysine N-methyltransferase ASH1L (Homo sapiens) (UniProt Q9NR48); settings: Compound concentration 10.0 uM
# [10] = molecular target: Bromodomain-containing protein 2 (Homo sapiens) (UniProt P25440); settings: Compound concentration 10.0 uM
# [11] = molecular target: Protein polybromo-1 (Homo sapiens) (UniProt Q86U86); settings: Compound concentration 10.0 uM; remark: listed apart in the source
# [12] = molecular target: Bromodomain-containing protein 7 (Homo sapiens) (UniProt Q9NPI1); settings: Compound concentration 10.0 uM
# [13] = molecular target: Bromodomain-containing protein 4 (Homo sapiens) (UniProt O60885); settings: Compound concentration 10.0 uM
# [14] = molecular target: Bromodomain and PHD finger-containing protein 3 (Homo sapiens) (UniProt Q9ULD4); settings: Compound concentration 10.0 uM
# [15] = molecular target: Histone acetyltransferase KAT2A (Homo sapiens) (UniProt Q92830); settings: Compound concentration 10.0 uM
# [16] = molecular target: SWI/SNF-related matrix-associated actin-dependent regulator of chromatin subfamily A member 4 (Homo sapiens) (UniProt P51532); settings: Compound concentration 10.0 uM
# [17] = molecular target: Transcription initiation factor TFIID subunit 1 (Homo sapiens) (UniProt P21675); settings: Compound concentration 10.0 uM
# Peregrin = Peregrin (Homo sapiens, UniProt P55201); experiment: Alphascreen assay. Binding to BRPF1B (domain start/stop: M626-G740) by alphascreen assay
# [18] = molecular target: Protein polybromo-1 (Homo sapiens) (UniProt Q86U86); settings: Compound concentration 10.0 uM; remark: listed apart in the source
# [19] = molecular target: Transcription initiation factor TFIID subunit 1 (Homo sapiens) (UniProt P21675); settings: Compound concentration 10.0 uM; remark: listed apart in the source
# [20] = molecular target: Histone-lysine N-methyltransferase 2A (Homo sapiens) (UniProt Q03164); settings: Compound concentration 10.0 uM
# [21] = molecular target: Bromodomain-containing protein 3 (Homo sapiens) (UniProt Q15059); settings: Compound concentration 10.0 uM
# [22] = molecular target: Chromatin remodeling regulator CECR2 (Homo sapiens) (UniProt Q9BXF3); settings: Compound concentration 25.0 uM, Protein concentration 19.0 uM
# [23] = molecular target: Transcription initiation factor TFIID subunit 1-like (Homo sapiens) (UniProt Q8IZX4); settings: Compound concentration 10.0 uM
# Peregrin (Homo sapiens) [24] = molecular target: Peregrin (Homo sapiens) (UniProt P55201); settings: Compound concentration 10.0 uM
# [25] = molecular target: Bromodomain-containing protein 9 (Homo sapiens) (UniProt Q9H8M2); settings: Compound concentration 10.0 uM
# Description: Thermal Shift Assay. Domain start/stop: L14-S134
# [26] = molecular target: PH-interacting protein (Homo sapiens) (UniProt Q8WWQ0); settings: Compound concentration 50.0 uM, Protein concentration 0.025 uM
# [27] = molecular target: Protein polybromo-1 (Homo sapiens) (UniProt Q86U86); settings: Compound concentration 10.0 uM; remark: listed apart in the source
# [28] = molecular target: Nuclear body protein SP140 (Homo sapiens) (UniProt Q13342); settings: Compound concentration 10.0 uM
# [29] = molecular target: Bromodomain and WD repeat-containing protein 3 (Homo sapiens) (UniProt Q6RI45); settings: Compound concentration 10.0 uM
# [30] = molecular target: Bromodomain-containing protein 3 (Homo sapiens) (UniProt Q15059); settings: Compound concentration 10.0 uM; remark: listed apart in the source
# [31] = molecular target: Nucleosome-remodeling factor subunit BPTF (Homo sapiens) (UniProt Q12830); settings: Compound concentration 25.0 uM, Protein concentration 19.0 uM
# Description: Alphascreen assay. Domain start/stop: S2791-H2911
# [32] = molecular target: PH-interacting protein (Homo sapiens) (UniProt Q8WWQ0); settings: Compound concentration 10.0 uM
# [33] = molecular target: ATPase family AAA domain-containing protein 2 (Homo sapiens) (UniProt Q6PL18); settings: Compound concentration 10.0 uM
# [34] = molecular target: Transcription intermediary factor 1-beta (Homo sapiens) (UniProt Q13263); settings: Compound concentration 10.0 uM
# [35] = molecular target: Bromodomain-containing protein 1 (Homo sapiens) (UniProt O95696); settings: Compound concentration 25.0 uM, Protein concentration 50.0 uM
# Description: Alphascreen assay. Domain start/stop: E556-A688
# [36] = molecular target: Bromodomain-containing protein 9 (Homo sapiens) (UniProt Q9H8M2); settings: Compound concentration 10.0 uM; remark: listed apart in the source
# Peregrin (Homo sapiens) [37] = molecular target: Peregrin (Homo sapiens) (UniProt P55201); settings: Compound concentration 10.0 uM; remark: listed apart in the source
# [38] = molecular target: SWI/SNF-related matrix-associated actin-dependent regulator of chromatin subfamily A member 2 (Homo sapiens) (UniProt P51531); settings: Compound concentration 10.0 uM
# [39] = molecular target: Histone acetyltransferase p300 (Homo sapiens) (UniProt Q09472); settings: Compound concentration 10.0 uM
# [40] = molecular target: ATPase family AAA domain-containing protein 2 (Homo sapiens) (UniProt Q6PL18); settings: Compound concentration 25.0 uM, Protein concentration 225.0 uM
# Description: Alphascreen assay. Domain start/stop: Q981-R1108
# [41] = molecular target: Transcription intermediary factor 1-alpha (Homo sapiens) (UniProt O15164); settings: Compound concentration 10.0 uM; remark: listed apart in the source
# [42] = molecular target: CREB-binding protein (Homo sapiens) (UniProt Q92793); settings: Compound concentration 10.0 uM
# [43] = molecular target: Tyrosine-protein kinase BAZ1B (Homo sapiens) (UniProt Q9UIG0); settings: Compound concentration 10.0 uM
# [44] = molecular target: E3 ubiquitin-protein ligase TRIM33 (Homo sapiens) (UniProt Q9UPN9); settings: Compound concentration 25.0 uM
# [45] = molecular target: Chromatin remodeling regulator CECR2 (Homo sapiens) (UniProt Q9BXF3); settings: Compound concentration 10.0 uM; remark: listed apart in the source
# [46] = molecular target: Transcription initiation factor TFIID subunit 1-like (Homo sapiens) (UniProt Q8IZX4); settings: Compound concentration 10.0 uM; remark: listed apart in the source
# [47] = molecular target: Protein polybromo-1 (Homo sapiens) (UniProt Q86U86); settings: Compound concentration 10.0 uM; remark: listed apart in the source
# [48] = molecular target: Bromodomain and WD repeat-containing protein 1 (Homo sapiens) (UniProt Q9NSI6); settings: Compound concentration 10.0 uM
# [49] = molecular target: Bromodomain-containing protein 4 (Homo sapiens) (UniProt O60885); settings: Compound concentration 10.0 uM; remark: listed apart in the source
# [50] = molecular target: Nuclear body protein SP140-like protein (Homo sapiens) (UniProt Q9H930); settings: Compound concentration 10.0 uM
# [51] = molecular target: Histone acetyltransferase KAT2B (Homo sapiens) (UniProt Q92831); settings: Compound concentration 10.0 uM
# [52] = molecular target: Bromodomain adjacent to zinc finger domain protein 2B (Homo sapiens) (UniProt Q9UIF8); settings: Compound concentration 10.0 uM
# [53] = molecular target: Bromodomain adjacent to zinc finger domain protein 1A (Homo sapiens) (UniProt Q9NRL2); settings: Compound concentration 10.0 uM
# [54] = molecular target: Nucleosome-remodeling factor subunit BPTF (Homo sapiens) (UniProt Q12830); settings: Compound concentration 10.0 uM
# [55] = molecular target: Bromodomain-containing protein 1 (Homo sapiens) (UniProt O95696); settings: Compound concentration 10.0 uM
# [56] = molecular target: Bromodomain-containing protein 2 (Homo sapiens) (UniProt P25440); settings: Compound concentration 10.0 uM; remark: listed apart in the source
# [57] = molecular target: Bromodomain-containing protein 1 (Homo sapiens, UniProt O95696)
# [58] = molecular target: Bromodomain testis-specific protein (Homo sapiens) (UniProt Q58F21); settings: Compound concentration 10.0 uM; remark: listed apart in the source
# Sequence of Protein polybromo-1 (Homo sapiens) (Q86U86 whole entry): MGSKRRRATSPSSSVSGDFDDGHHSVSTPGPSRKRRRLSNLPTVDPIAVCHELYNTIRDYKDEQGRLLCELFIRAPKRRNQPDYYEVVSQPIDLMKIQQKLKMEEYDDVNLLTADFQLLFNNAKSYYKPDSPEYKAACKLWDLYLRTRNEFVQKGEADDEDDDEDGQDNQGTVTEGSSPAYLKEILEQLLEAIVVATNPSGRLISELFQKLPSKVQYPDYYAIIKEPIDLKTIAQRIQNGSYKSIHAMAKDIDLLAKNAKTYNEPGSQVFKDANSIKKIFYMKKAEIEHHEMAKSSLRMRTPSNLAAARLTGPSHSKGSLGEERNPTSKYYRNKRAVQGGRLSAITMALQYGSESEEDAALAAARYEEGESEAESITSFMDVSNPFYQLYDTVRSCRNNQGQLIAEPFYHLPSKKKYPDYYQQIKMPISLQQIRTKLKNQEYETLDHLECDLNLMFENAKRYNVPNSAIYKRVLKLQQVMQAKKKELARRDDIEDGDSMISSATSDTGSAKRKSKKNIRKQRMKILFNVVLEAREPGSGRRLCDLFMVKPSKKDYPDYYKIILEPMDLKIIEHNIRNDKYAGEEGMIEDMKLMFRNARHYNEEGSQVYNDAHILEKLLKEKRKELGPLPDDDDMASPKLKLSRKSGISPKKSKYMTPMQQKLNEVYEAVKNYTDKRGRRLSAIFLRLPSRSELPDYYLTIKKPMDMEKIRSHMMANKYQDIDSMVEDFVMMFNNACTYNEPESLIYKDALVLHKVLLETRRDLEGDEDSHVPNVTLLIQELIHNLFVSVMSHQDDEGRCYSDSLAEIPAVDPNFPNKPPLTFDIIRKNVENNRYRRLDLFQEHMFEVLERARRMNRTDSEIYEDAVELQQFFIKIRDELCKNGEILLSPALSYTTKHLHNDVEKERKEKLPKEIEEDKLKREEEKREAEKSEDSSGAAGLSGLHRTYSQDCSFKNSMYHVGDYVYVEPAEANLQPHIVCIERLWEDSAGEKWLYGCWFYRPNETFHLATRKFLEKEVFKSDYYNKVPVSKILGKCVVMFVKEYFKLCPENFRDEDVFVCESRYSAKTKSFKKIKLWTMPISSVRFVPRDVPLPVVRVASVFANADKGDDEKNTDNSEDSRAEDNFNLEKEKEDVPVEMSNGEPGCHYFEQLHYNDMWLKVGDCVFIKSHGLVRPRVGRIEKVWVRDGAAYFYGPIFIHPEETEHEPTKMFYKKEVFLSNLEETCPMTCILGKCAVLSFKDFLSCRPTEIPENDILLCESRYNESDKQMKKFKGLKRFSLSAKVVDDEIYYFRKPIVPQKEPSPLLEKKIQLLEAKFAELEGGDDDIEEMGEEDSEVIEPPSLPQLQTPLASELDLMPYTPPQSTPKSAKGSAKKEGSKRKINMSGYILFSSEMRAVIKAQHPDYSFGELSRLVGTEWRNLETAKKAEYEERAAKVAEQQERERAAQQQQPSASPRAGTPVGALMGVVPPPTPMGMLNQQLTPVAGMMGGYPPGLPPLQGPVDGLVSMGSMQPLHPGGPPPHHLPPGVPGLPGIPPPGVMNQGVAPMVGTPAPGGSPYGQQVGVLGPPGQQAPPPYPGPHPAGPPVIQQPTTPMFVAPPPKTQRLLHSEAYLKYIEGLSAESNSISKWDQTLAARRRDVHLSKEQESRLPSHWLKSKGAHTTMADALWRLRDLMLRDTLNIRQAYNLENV
# Sequence of Bromodomain-containing protein 9 (Homo sapiens) (Q9H8M2 whole entry): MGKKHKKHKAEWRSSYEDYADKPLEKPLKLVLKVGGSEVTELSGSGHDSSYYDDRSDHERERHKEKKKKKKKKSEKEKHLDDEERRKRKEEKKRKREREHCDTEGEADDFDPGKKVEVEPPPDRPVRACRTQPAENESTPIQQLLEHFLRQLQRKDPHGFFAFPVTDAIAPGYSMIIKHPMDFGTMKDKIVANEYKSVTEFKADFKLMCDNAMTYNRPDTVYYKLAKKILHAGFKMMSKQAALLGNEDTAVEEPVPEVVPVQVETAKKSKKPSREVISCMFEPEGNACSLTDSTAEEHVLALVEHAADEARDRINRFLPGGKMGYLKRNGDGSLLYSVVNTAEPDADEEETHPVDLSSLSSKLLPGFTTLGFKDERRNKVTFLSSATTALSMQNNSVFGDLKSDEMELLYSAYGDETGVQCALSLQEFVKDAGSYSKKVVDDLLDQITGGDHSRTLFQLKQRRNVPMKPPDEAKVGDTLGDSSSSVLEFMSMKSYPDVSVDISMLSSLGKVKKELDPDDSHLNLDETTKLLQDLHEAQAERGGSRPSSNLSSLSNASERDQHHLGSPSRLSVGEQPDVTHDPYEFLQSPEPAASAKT
# Sequence of Peregrin (Homo sapiens) (P55201 whole entry): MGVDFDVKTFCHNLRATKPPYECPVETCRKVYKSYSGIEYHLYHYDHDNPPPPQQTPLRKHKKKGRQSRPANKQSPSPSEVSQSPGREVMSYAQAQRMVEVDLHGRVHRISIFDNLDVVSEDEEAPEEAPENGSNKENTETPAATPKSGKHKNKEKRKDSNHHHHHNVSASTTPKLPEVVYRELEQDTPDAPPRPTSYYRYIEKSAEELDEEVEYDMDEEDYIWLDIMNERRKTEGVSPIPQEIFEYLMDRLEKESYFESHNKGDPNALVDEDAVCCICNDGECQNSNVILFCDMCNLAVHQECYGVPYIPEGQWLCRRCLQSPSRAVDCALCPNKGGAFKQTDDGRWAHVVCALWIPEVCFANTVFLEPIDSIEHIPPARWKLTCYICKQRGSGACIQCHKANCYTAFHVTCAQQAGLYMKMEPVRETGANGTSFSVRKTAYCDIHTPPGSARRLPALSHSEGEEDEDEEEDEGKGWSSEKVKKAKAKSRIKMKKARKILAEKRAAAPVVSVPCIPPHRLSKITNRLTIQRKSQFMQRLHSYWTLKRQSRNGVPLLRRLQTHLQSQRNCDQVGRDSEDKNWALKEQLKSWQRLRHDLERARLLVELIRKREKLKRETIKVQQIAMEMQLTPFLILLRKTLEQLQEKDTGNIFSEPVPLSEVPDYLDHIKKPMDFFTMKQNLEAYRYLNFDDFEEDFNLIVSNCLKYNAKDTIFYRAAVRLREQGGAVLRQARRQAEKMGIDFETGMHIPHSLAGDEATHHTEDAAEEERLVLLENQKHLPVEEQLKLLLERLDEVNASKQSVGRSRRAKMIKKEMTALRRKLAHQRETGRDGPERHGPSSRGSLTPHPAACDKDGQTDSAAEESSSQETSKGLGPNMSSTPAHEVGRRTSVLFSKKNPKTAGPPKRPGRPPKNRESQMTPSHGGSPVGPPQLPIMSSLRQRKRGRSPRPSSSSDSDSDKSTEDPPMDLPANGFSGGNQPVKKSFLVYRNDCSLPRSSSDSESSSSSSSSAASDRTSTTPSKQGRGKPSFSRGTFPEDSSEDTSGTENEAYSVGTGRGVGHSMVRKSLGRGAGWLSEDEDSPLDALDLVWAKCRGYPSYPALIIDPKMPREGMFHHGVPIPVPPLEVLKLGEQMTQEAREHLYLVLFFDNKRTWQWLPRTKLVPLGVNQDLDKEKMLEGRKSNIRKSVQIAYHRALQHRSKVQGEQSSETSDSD
# Sequence of Bromodomain-containing protein 3 (Homo sapiens) (Q15059 2-726 limits assumed): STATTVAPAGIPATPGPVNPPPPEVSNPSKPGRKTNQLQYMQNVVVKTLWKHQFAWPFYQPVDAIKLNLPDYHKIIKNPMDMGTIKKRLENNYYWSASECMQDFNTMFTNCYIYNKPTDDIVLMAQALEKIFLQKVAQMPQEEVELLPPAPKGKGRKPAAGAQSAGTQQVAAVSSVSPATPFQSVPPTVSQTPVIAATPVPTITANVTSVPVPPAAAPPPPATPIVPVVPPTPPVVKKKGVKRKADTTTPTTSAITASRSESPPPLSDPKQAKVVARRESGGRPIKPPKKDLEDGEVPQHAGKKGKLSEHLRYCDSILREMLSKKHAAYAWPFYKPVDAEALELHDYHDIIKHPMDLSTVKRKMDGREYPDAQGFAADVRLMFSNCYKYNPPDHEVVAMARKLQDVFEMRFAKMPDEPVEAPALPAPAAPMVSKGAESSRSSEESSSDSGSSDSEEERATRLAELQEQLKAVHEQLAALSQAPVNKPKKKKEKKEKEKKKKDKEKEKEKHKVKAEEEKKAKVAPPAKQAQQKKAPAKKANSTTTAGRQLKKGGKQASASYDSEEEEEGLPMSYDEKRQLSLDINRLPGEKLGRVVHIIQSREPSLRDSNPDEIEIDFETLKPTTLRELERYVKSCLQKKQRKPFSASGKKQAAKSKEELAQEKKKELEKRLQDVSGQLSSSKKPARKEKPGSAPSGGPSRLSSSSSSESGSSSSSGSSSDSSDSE
# Sequence of Bromodomain-containing protein 2 (Homo sapiens) (P25440 whole entry, looked up): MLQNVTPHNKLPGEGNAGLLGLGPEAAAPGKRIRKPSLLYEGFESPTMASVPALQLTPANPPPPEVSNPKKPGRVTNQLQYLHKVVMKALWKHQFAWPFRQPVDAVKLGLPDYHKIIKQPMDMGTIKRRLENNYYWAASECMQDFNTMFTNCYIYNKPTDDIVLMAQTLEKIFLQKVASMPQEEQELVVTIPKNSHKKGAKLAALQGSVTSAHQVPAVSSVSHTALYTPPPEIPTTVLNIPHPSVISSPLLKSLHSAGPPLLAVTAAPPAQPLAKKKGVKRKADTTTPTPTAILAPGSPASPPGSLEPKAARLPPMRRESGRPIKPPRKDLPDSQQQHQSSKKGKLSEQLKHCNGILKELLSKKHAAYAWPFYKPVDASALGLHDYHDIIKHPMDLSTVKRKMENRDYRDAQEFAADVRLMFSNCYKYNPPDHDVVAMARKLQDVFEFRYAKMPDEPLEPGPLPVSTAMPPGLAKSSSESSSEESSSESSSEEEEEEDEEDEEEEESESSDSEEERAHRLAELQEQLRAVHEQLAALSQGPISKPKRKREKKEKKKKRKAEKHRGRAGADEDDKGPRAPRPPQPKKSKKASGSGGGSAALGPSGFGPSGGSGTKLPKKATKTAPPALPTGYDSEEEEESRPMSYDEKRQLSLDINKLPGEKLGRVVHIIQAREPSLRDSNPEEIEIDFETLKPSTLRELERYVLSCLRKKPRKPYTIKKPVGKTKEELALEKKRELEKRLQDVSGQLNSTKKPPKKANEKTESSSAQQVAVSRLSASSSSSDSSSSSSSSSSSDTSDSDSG
# Sequence of Peregrin (P55201 whole entry): as the sequence (P55201 whole entry) above
compound,measurement,setting,value
COc1cc(C#N)ccc1S(=O)(=O)Nc1ccc2c(c1)cc(C)c(=O)n2C,ΔTm,[1],-0.24 °C
same,ΔTm,[2],-0.01 °C
same,ΔTm,[3],0.3 °C
same,ΔTm,[4],2.11 °C and 2.01 °C
same,ΔTm,[5],0.42 °C
same,inhibition,[6],4.5%
same,ΔTm,[7],0.58 °C
same,ΔTm,[8],0.32 °C
same,ΔTm,[9],0.15 °C
same,ΔTm,[10],0.11 °C
same,ΔTm,[11],0.5 °C
same,ΔTm,[12],6.81 °C
same,ΔTm,[13],0.14 °C
same,ΔTm,[14],5.43 °C
same,ΔTm,[15],0.45 °C
same,ΔTm,[16],0.38 °C
same,ΔTm,[17],0.55 °C
same,pIC50,Peregrin,7.33
same,ΔTm,[18],0.3 °C
same,ΔTm,[19],0.4 °C
same,ΔTm,[20],0.47 °C
same,ΔTm,[21],0.17 °C
same,inhibition,[22],35.4%
same,ΔTm,[23],0.72 °C
same,ΔTm,Peregrin (Homo sapiens) [24],1.19 °C
same,ΔTm,[25],5.4 °C
same,inhibition,[26],6.61% and 8.15%
same,ΔTm,[27],0.79 °C
same,ΔTm,[28],1.1 °C
same,ΔTm,[29],2.08 °C
same,ΔTm,[30],0.83 °C
same,inhibition,[31],49.2%
same,ΔTm,[32],-2.61 °C
same,ΔTm,[33],-0.43 °C
same,ΔTm,[34],1.21 °C
same,inhibition,[35],99.7%
same,ΔTm,[36],4.57 °C and 3.61 °C
same,ΔTm,Peregrin (Homo sapiens) [37],12.3 °C and 10.8 °C
same,ΔTm,[38],0.58 °C
same,ΔTm,[39],1.15 °C
same,inhibition,[40],4.03%
same,ΔTm,[41],1.64 °C
same,ΔTm,[42],0.49 °C and 1.24 °C
same,ΔTm,[43],0.4 °C
same,inhibition,[44],9.82%
same,ΔTm,[45],0.43 °C
same,ΔTm,[46],0.81 °C
same,ΔTm,[47],0.79 °C
same,ΔTm,[48],0.74 °C
same,ΔTm,[49],0.93 °C and 1.25 °C
same,ΔTm,[50],1.35 °C
same,ΔTm,[51],0.53 °C
same,ΔTm,[52],0.1 °C
same,ΔTm,[53],0.38 °C
same,ΔTm,[54],0.31 °C
same,ΔTm,[55],5.67 °C
same,ΔTm,[56],0.62 °C
same,pIC50,[57],6.50
same,ΔTm,[58],0.25 °C
